Laboratory results as given in PubChem BioAssay AID2060603 (Molecular Pharmacology Branch, DTP, NCI, 2025).

Test system: 422866-222-R5-J1-PDC spheroid viability
Assay: Anticancer human tumor 422866-222-R5-J1-PDC patient-derived pancreatic adenocarcinoma cell line growth inhibition [CLK]
Conditions: spheroids with HUVEC and MSC; for IC50: curve of first compound; for viability, T/C: stronger effect = lower value
How it was run: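 Patient-derived tumor cells grown as complex spheroids with HUVEC endothelial cells and mesenchymal stem cells, treated with drug combinations. Concentrations descend in half-log steps from near clinical Cmax, or from 10 microM if Cmax unknown.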
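Note: spheroids exposed to agents for seven days before readout.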

C=CC(=O)Nc1cc(Nc2nccc(-c3cn(C)c4ccccc34)n2)c(OC)cc1N(C)CCN(C)C + CNC(=O)c1ccc(Nc2nc(OC3CCCC3)c3c(-c4ccc5nc(C)oc5c4)c[nH]c3n2)c(OC)c1
IC50 (second compound 0.0316 µM): > 300 nM | IC50 (second compound 0.1 µM): > 300 nM | IC50 (second compound 0.316 µM): > 300 nM | IC50 (second compound 1 µM): > 300 nM | IC50 (second compound 3.16 µM): > 300 nM | IC50 (second compound 10 µM): > 300 nM | viability, T/C (second compound 0.0316 µM, first compound 0.000949 µM): 98.9% | viability, T/C (second compound 0.0316 µM, first compound 0.003 µM): 98.2% | viability, T/C (second compound 0.0316 µM, first compound 0.00949 µM): 85.4% | viability, T/C (second compound 0.0316 µM, first compound 0.03 µM): 79.2% | viability, T/C (second compound 0.0316 µM, first compound 0.0949 µM): 69.7% | viability, T/C (second compound 0.0316 µM, first compound 0.3 µM): 77.1% | viability, T/C (second compound 0.1 µM, first compound 0.000949 µM): 103% | viability, T/C (second compound 0.1 µM, first compound 0.003 µM): 82.9% | viability, T/C (second compound 0.1 µM, first compound 0.00949 µM): 74.5% | viability, T/C (second compound 0.1 µM, first compound 0.03 µM): 71.8% | viability, T/C (second compound 0.1 µM, first compound 0.0949 µM): 70.7% | viability, T/C (second compound 0.1 µM, first compound 0.3 µM): 57.1% | viability, T/C (second compound 0.316 µM, first compound 0.000949 µM): 66.3% | viability, T/C (second compound 0.316 µM, first compound 0.003 µM): 73.5% | viability, T/C (second compound 0.316 µM, first compound 0.00949 µM): 68% | viability, T/C (second compound 0.316 µM, first compound 0.03 µM): 58.7% | viability, T/C (second compound 0.316 µM, first compound 0.0949 µM): 59.2% | viability, T/C (second compound 0.316 µM, first compound 0.3 µM): 60.7% | viability, T/C (second compound 1 µM, first compound 0.000949 µM): 60.8% | viability, T/C (second compound 1 µM, first compound 0.003 µM): 65.8% | viability, T/C (second compound 1 µM, first compound 0.00949 µM): 60.9% | viability, T/C (second compound 1 µM, first compound 0.03 µM): 65.5% | viability, T/C (second compound 1 µM, first compound 0.0949 µM): 59.3% | viability, T/C (second compound 1 µM, first compound 0.3 µM): 54.8% | viability, T/C (second compound 3.16 µM, first compound 0.000949 µM): 52.8% | viability, T/C (second compound 3.16 µM, first compound 0.003 µM): 61.6% | viability, T/C (second compound 3.16 µM, first compound 0.00949 µM): 60.4% | viability, T/C (second compound 3.16 µM, first compound 0.03 µM): 56.4% | viability, T/C (second compound 3.16 µM, first compound 0.0949 µM): 62.7% | viability, T/C (second compound 3.16 µM, first compound 0.3 µM): 54.9% | viability, T/C (second compound 10 µM, first compound 0.000949 µM): 69.6% | viability, T/C (second compound 10 µM, first compound 0.003 µM): 68.8% | viability, T/C (second compound 10 µM, first compound 0.00949 µM): 63.5% | viability, T/C (second compound 10 µM, first compound 0.03 µM): 62.4% | viability, T/C (second compound 10 µM, first compound 0.0949 µM): 55.6% | viability, T/C (second compound 10 µM, first compound 0.3 µM): 51.7%
